# Results reported in patent US20040106093A1, “Myb-transformed blood cells and their use for active ingredient screening” (priority 2001, published 2004).
# How the values were obtained:
# Type in all cases: cell-based, chicken
# bFGF/v-myb-cells [1] = experiment: FGF dose response in cell proliferation assay (MTT / 3H-thymidine incorporation); conditions: for proliferative (mitogenic) response in the presence of heparin: heparin 5 μg/ml, 3H-thymidine incorporation, FIG. 5A; for stimulation of bFGF/v-myb-cell proliferation: serial dilutions starting at 100 ng/ml, without heparin, FIG. 4
# Experimental: (§1) Cell proliferation was measured as ratio of DNA-synthesis by ^3H-thymidin-incorporation or use CellTiter96® (Promega). Briefly, the cells (4×10^4 cells/100 μl) were incubated in CFU-E-Medium (see above) with 0.8 μCi ^3H-thymidine (specific activity 29 Ci/mmol; Amersham, UK) for 2 hours at 37° C., brought onto filter plates and subjected to scintillation counting. The average values from triplicate samples were determined. The Celltiter96 MTS-assay was for 2 hours. Heparin (B. Braun, Melsungen, Germany) was used at 5 μg/ml. Inhibitors were used at the following concentrations: PD98059 (5 μM), PP2 (100 nM), U-73122 (1 μM), Worthmannin (100 nM), Cyclosporin A (10 nM), GF 109203X (10 nM) and KN-62 (1 μM) (all from Calbiochem).
# FGF—dose response measured by cell proliferation assay (MTT). Serial dilutions of aFGF and bFGF, respectively, starting at 100 ng/ml are shown.
# (A) Dose response curve of aFGF and bFGF in the presence or absence of heparin is shown. Cell proliferation was measured by ^3H-thymidine incorporation assay.
# bFGF/v-myb-cells [2] = experiment: Erythroid differentiation assay (anaemic serum plus insulin)
# Experimental: To produce erythroid differentiation, cells were incubated in CFU-E-medium without ChS (2×10^6 cells/ml) supplemented with 3% anaemic chicken serum (as source for erythropoietin) plus 10 ng/ml recombinant human insulin (Novo Nordisk) in the presence or absence of 25 ng/ml bFGF. Erythroid differentiation was assessed by (1) determining haemoglobin accumulation in cytospin preparations that stained with neutral, and Diff-Quik (Baxter, Switzerland), or in haemoglobin assay (Beug et al., 1995, Methods Enzymol, 254, 41-76) (2), measuring reduction in cell size with the CASY-1 Cell Counter and Analyser System; and (3) loss of proliferative potential in ^3H-thymidine incorporation assays. Photographs were taken and processed as above.
# Differentiation properties of bFGF/v-myb erythroid progenitor cells. Kinetics of the different differentiation parameters of bFGF/v-myb-cells. The number of cells, the cell volume, and the amount of haemoglobin were estimated during the 4-day differentiation in absence (AS, Ins) or presence of bFGF (AS, Ins+bFGF) or without factor (no). The cells remaining in bFGF are only shown as a control (bFGF).
# [3] = tested on: blastoderm derived bFGF/v-myb-cells; experiment: Growth factor requirements of blastoderm derived v-myb cells in culture; conditions: bFGF 25 ng/ml, SCF 100 ng/ml, TGFα 5 ng/ml; factor alone; FIG. 2B
# Experimental: Blastoderm-derived cells (2 days incubation, Hamilton-stage HH 10-12) and bone marrow cells ([…]) were cocultivated for 2 days with a mitomycin C-treated virus or control (non-infected)-CEF in a CFU-E-medium (Beug et al., 1995, Methods Enzymol, 254, 41-76) containing bFGF (25 ng/ml, Promega), chicken-SCF (100 ng/ml; Bartunek et al., 1996, Cytokine, 8, 14-20), TGFα (5 ng/ml, Promega) or different combinations thereof, or no factors. After 2 days nonadherent cells were regenerated and cells were grown at 2×10^6 cells/ml. An outgrowth of myb transformed cells was routinely observed at day 5-7 and cell numbers were determined in regular time intervals using the cell counter and analyser system CASY-1 (Scharfe System, Reutlingen, Germany).
# (B) Growth factor requirements of bFGF/v-myb-cells. The cumulative number of cells gown with various factors and combinations thereof are shown. Closed and open symbols refer to cells with an erythroid and myeloid phenotype, respectively.
# bFGF/v-myb-cells [4] = experiment: Proliferation assay of bFGF-stimulated bFGF/v-myb-cells with specific signalling inhibitors (3H-thymidine incorporation); conditions: bFGF 25 ng/ml, FIG. 5B; for reduction of bFGF induced bFGF/v-myb cell proliferation: GF 109203X 10 nM, Cyclosporin A 10 nM, KN-62 1 μM (methods); for effect on bFGF induced bFGF/v-myb cell proliferation: proliferation without inhibitor set 100%, C
# Experimental: as §1
# (B) The bFGF/v-myb-cells were stimulated with bFGF and with specific inhibitors (for details see methods). Cell proliferation was measured in (A) per cent of proliferation in response to bFGF (25 ng/ml) and specific inhibitor is shown. Proliferation without inhibitor was arbitrarily set 100%.
# (C) Dose response curve of the PLCy inhibitor U-73122 on bFGF/v-myb-cells in the presence of bFGF (25 ng/ml). Cell proliferation was measured by ^3H-thymidine incorporation assay as in (A). Two independent experiments arc shown.
# [5] = differentiation induction in the presence of bFGF, FIG. 3
molecule,measurement,setting,value
bFGF: growth factor bFGF (basis fibroblast growth factor),proliferative (mitogenic) response in the presence of heparin,bFGF/v-myb-cells [1],no further increase
same,stimulation of bFGF/v-myb-cell proliferation,bFGF/v-myb-cells [1],induced a maximal stimulation
same,ability to undergo terminal erythroid differentiation,bFGF/v-myb-cells [2]; differentiation induced by anaemic serum and insulin in the presence of 25 ng/ml bFGF,completely blocked
same,cell volume,bFGF/v-myb-cells [2]; [5],approximately 500 μl
same,haemoglobin accumulation,bFGF/v-myb-cells [2]; [5],did not accumulate haemoglobin
same,phenotype / outgrowth of v-myb cells with growth factor,[3],proliferating erythroid bFGF/v-myb-cells were obtained only in the presence of bFGF
CC1(C)C(C=C(Cl)Cl)C1C(=O)OC(C#N)c1cccc(Oc2ccccc2)c1 (centres unmarked) [cypermethrin],reduction of bFGF induced bFGF/v-myb cell proliferation,bFGF/v-myb-cells [4],45%
cyclosporine A,reduction of bFGF induced bFGF/v-myb cell proliferation,bFGF/v-myb-cells [4],45%
TGFα: growth factor TGFα,phenotype / outgrowth of v-myb cells with growth factor,[3],outgrowth exclusively of myeloid cells
COc1cccc(-c2cc(=O)c3ccccc3o2)c1N [PD 98059],effect on bFGF induced bFGF/v-myb cell proliferation,bFGF/v-myb-cells [4],partially inhibitory only at higher concentrations
"aFGF: acidic FGF, FGF-1, member of the FGF family",proliferative (mitogenic) response in the presence of heparin,bFGF/v-myb-cells [1],clear enhancement
same,stimulation of bFGF/v-myb-cell proliferation,bFGF/v-myb-cells [1],only marginally if at all
COC[C@H]1OC(=O)c2coc3c2[C@@]1(C)C1=C(C3=O)[C@@H]2CCC(=O)[C@@]2(C)C[C@H]1OC(C)=O [Worthmannin],effect on bFGF induced bFGF/v-myb cell proliferation,bFGF/v-myb-cells [4],ineffective
CN(C)CCCn1cc(C2=C(c3c[nH]c4ccccc34)C(=O)NC2=O)c2ccccc21 [GF109203X],reduction of bFGF induced bFGF/v-myb cell proliferation,bFGF/v-myb-cells [4],30%
CN([C@@H](Cc1ccc(OS(=O)(=O)c2cccc3cnccc23)cc1)C(=O)N1CCN(c2ccccc2)CC1)S(=O)(=O)c1cccc2cnccc12 [KN-62],reduction of bFGF induced bFGF/v-myb cell proliferation,bFGF/v-myb-cells [4],Sixty per cent
COc1ccc2c(c1)CC[C@@H]1[C@@H]2CC[C@]2(C)[C@@H](NCCCCCCN3C(=O)C=CC3=O)CC[C@@H]12 [U-73122],effect on bFGF induced bFGF/v-myb cell proliferation,bFGF/v-myb-cells [4],dramatically reduced
CC(C)=CCC/C(C)=C/CC/C(C)=C/CSc1ccccc1C(=O)O [FTS],effect on bFGF induced bFGF/v-myb cell proliferation,bFGF/v-myb-cells [4],neither Ras inhibitor FTS (inhibitor of famesylation) nor src family inhibitor PP-2 had any effect
